#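 Cultured in 96-well plates, cells were exposed to test compound for 48 hours across five concentrations. TGI: total growth inhibition.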
# Legend:
# Test in all cases: inhibition of tumour cell growth, NCI panel, 48 h
# [1] = tested on: LOX IMVI melanoma
# [2] = tested on: MDA-N
# [3] = tested on: T-47D breast
# [4] = tested on: M14 melanoma
# [5] = tested on: MALME-3M melanoma
# [6] = tested on: OVCAR-8 ovarian
# [7] = tested on: CCRF-CEM leukemia
# [8] = tested on: HT29 colon
# [9] = tested on: HS 578T breast
# [10] = tested on: HOP-62 NSCLC
# [11] = tested on: RPMI-8226 leukemia
# [12] = tested on: ACHN renal
# [13] = tested on: A498 renal
# [14] = tested on: HOP-92 NSCLC
# [15] = tested on: NCI-H522 lung
# [16] = tested on: OVCAR-5 ovarian
# [17] = tested on: SK-MEL-28 melanoma
# [18] = tested on: SK-OV-3 ovarian
# [19] = tested on: A549 NSCLC
# [20] = tested on: CAKI-1 renal
# [21] = tested on: NCI/ADR-RES ovarian
# [22] = tested on: SNB-19 CNS
# [23] = tested on: OVCAR-4 ovarian
# [24] = tested on: HL-60(TB) leukemia
# [25] = tested on: K-562 leukemia
# [26] = tested on: NCI-H226 lung
# [27] = tested on: EKVX NSCLC
# [28] = tested on: MOLT-4 leukemia
# [29] = tested on: SF-268 CNS
# [30] = tested on: HCT-15 colon
# [31] = tested on: RXF 393 renal
# [32] = tested on: SW-620 colon
# [33] = tested on: HCT-116 colon
# [34] = tested on: SF-539 CNS
# [35] = tested on: NCI-H23 lung
# [36] = tested on: PC-3 prostate
# [37] = tested on: SK-MEL-5 melanoma
# [38] = tested on: SF-295 CNS
# [39] = tested on: MCF7 breast
# [40] = tested on: HCC-2998 colon
# [41] = tested on: SN12C renal
# [42] = tested on: UACC-62 melanoma
# [43] = tested on: SK-MEL-2 melanoma
# [44] = tested on: DU-145 prostate
# [45] = tested on: 786-0 renal
# [46] = tested on: MDA-MB-231 breast
# [47] = tested on: COLO 205 colon
# [48] = tested on: UACC-257 melanoma
# [49] = tested on: KM12 colon
# [50] = tested on: IGROV1 ovarian
# [51] = tested on: SR leukemia
# [52] = tested on: NCI-H460 lung
# [53] = tested on: OVCAR-3 ovarian
# [54] = tested on: U251 CNS
# [55] = tested on: MDA-MB-435
# [56] = tested on: UO-31 renal
# [57] = tested on: BT-549 breast
# [58] = tested on: TK-10 renal
# [59] = tested on: DMS 273 small cell lung
# [60] = tested on: SNB-75 CNS
# [61] = tested on: DLD-1 colon
# [62] = tested on: DMS 114 small cell lung
# [63] = tested on: XF 498 CNS
# [64] = tested on: M19-MEL melanoma
# [65] = tested on: SNB-78 CNS
# [66] = tested on: KM20L2 colon
smiles,measurement,setting,value
Cc1ccc(S(=O)(=O)N2CCN(CCN(C)CCN3CCN(S(=O)(=O)c4ccc(C)cc4)CC3)CC2)cc1,TGI,[1],33 µM
same,TGI,[2],39.7 µM
same,TGI,[3],48 µM
same,TGI,[4],31.2 µM
same,TGI,[5],33.7 µM
same,TGI,[6],32.7 µM
same,TGI,[7],44.2 µM
same,TGI,[8],29.9 µM
same,TGI,[9],42.2 µM
same,TGI,[10],33 µM
same,TGI,[11],37 µM
same,TGI,[12],32.7 µM
same,TGI,[13],31.8 µM
same,TGI,[14],35.6 µM
same,TGI,[15],38.9 µM
same,TGI,[16],80.8 µM
same,TGI,[17],31.4 µM
same,TGI,[18],33.3 µM
same,TGI,[19],76.1 µM
same,TGI,[20],40.5 µM
same,TGI,[21],43.1 µM
same,TGI,[22],69.4 µM
same,TGI,[23],43.7 µM
same,TGI,[24],33.6 µM
same,TGI,[25],35.2 µM
same,TGI,[26],79.7 µM
same,TGI,[27],55.2 µM
same,TGI,[28],36 µM
same,TGI,[29],40.1 µM
same,TGI,[30],31.9 µM
same,TGI,[31],27.8 µM
same,TGI,[32],31.7 µM
same,TGI,[33],35 µM
same,TGI,[34],30.3 µM
same,TGI,[35],44.8 µM
same,TGI,[36],56 µM
same,TGI,[37],32.3 µM
same,TGI,[38],31.9 µM
same,TGI,[39],32.8 µM
same,TGI,[40],29.4 µM
same,TGI,[41],37.6 µM
same,TGI,[42],32.8 µM
same,TGI,[43],33.6 µM
same,TGI,[44],68.5 µM
same,TGI,[45],39.3 µM
same,TGI,[46],49 µM
same,TGI,[47],38.9 µM
same,TGI,[48],30.5 µM
same,TGI,[49],31.6 µM
same,TGI,[50],33.6 µM
same,TGI,[51],36.3 µM
same,TGI,[52],32.2 µM
same,TGI,[53],31.1 µM
same,TGI,[54],31.6 µM
same,TGI,[55],32 µM
same,TGI,[56],26.8 µM
same,TGI,[57],30.6 µM
same,TGI,[58],30.2 µM
C=C1C[C@]23C[C@@]1(O)CC[C@H]2[C@@]12C=C[C@H](O)[C@@](C)(C(=O)O1)[C@H]2[C@@H]3C(=O)O,TGI,[59],> 100 µM
same,TGI,[1],> 100 µM
same,TGI,[4],> 100 µM
same,TGI,[5],> 100 µM
same,TGI,[60],> 100 µM
same,TGI,[7],> 100 µM
same,TGI,[8],> 100 µM
same,TGI,[10],> 100 µM
same,TGI,[11],> 100 µM
same,TGI,[14],> 100 µM
same,TGI,[15],> 100 µM
same,TGI,[16],> 100 µM
same,TGI,[17],> 100 µM
same,TGI,[18],> 100 µM
same,TGI,[19],> 100 µM
same,TGI,[20],> 100 µM
same,TGI,[22],> 100 µM
same,TGI,[61],> 100 µM
same,TGI,[23],> 100 µM
same,TGI,[24],> 100 µM
same,TGI,[25],> 100 µM
same,TGI,[26],> 100 µM
same,TGI,[27],> 100 µM
same,TGI,[28],> 100 µM
same,TGI,[29],> 100 µM
same,TGI,[30],> 100 µM
same,TGI,[31],> 100 µM
same,TGI,[32],> 100 µM
same,TGI,[33],> 100 µM
same,TGI,[34],> 100 µM
same,TGI,[35],> 100 µM
same,TGI,[37],> 100 µM
same,TGI,[62],> 100 µM
same,TGI,[38],> 100 µM
same,TGI,[63],> 100 µM
same,TGI,[40],> 100 µM
same,TGI,[41],> 100 µM
same,TGI,[42],> 100 µM
same,TGI,[43],> 100 µM
same,TGI,[64],> 100 µM
same,TGI,[45],> 100 µM
same,TGI,[47],> 100 µM
same,TGI,[48],> 100 µM
same,TGI,[49],> 100 µM
same,TGI,[65],> 100 µM
same,TGI,[50],> 100 µM
same,TGI,[51],> 100 µM
same,TGI,[52],> 100 µM
same,TGI,[66],> 100 µM
same,TGI,[53],> 100 µM
same,TGI,[54],> 100 µM
same,TGI,[56],> 100 µM
same,TGI,[58],> 100 µM
